Target: T1, C5a receptor (Homo sapiens, UniProt P21730)
T1 construct: from tissue; host or cells: polymorphonuclear leukocyte (PMNL) membrane fragments
T1 sequence (P21730 1-350): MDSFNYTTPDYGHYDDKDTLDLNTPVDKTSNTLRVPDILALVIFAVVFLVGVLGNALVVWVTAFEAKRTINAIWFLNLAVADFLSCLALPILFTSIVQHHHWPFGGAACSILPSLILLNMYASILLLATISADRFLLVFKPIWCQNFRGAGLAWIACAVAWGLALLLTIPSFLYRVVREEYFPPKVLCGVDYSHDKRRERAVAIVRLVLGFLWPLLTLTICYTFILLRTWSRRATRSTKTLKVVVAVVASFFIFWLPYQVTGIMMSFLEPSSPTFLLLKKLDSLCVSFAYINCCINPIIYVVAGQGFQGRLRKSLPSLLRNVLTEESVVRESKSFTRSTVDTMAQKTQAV
Experiment: Anaphylatoxin (C5a) receptor binding Ki determination, 125I-C5a on PMNL membrane fragments
Conditions: read-out: Ki (In vitro C5a Receptor Binding Potency)
Experimental: The membrane-bound radiolabeled C5a was separated from the free radiolabeled C5a by filtration, and the recovered gamma radioactivity was measured. […] Free and membrane-bound ligand were separated by filtration.

SMILES	Ki
CC(C)C[C@H](NC(=O)[C@@H]1CCCN1C(=O)[C@H](CC1CCCCC1)NC(=O)CCCCCN)C(=O)NC(CCCc1ccccc1)C(=O)N[C@@H](CCCNC(=N)N)C(=O)O (mixture of isomers) [Example 11, N-(6-Aminohexanoyl)-{(2S)-2Amino-3-cyclohexylpropanoyl}-Prolyl-Leucyl-{(R/S)-2-Amino-5-phenylpentanoyl}-Arginyl-OH]	3.6 µM
CC(C)C[C@@H](C(=O)NC(CCCc1ccccc1)C(=O)N[C@@H](CCCNC(=N)N)C(=O)O)N(C)C(=O)CNC(=O)[C@H](CC1CCCCC1)NC(=O)CCCCCCN (mixture of isomers) [Example 27, N-(7-Aminoheptanoyl)-{(2S)-2-Amino-3-cyclohexylpropanoyl}-Glycyl-Leucyl(N-methyl)-{(R/S)-2-Amino-5-phenylpentanoyl}-Arginyl-OH]	0.45 µM
CC(C)C[C@H](NC(=O)CNC(=O)[C@H](CC1CCCCC1)NC(=O)CCCCCCN)C(=O)N(C)C(CCCc1ccccc1)C(=O)N[C@@H](CCCNC(=N)N)C(=O)O (mixture of isomers) [Example 28]	1.72 µM
CC(C)C[C@H](NC(=O)CCCc1c[nH]c2ccccc12)C(=O)NC(CCCc1ccccc1)C(=O)N[C@@H](CCCNC(=N)N)C(=O)O (mixture of isomers) [Example 30, N-(Indole-3-butyryl)-Leucyl-{(R/S)-2-Amino-5-phenylpentanoyl}-Arginyl-OH]	7.1 µM
N=C(N)NCCC[C@H](NC(=O)C(CCCc1ccccc1)NC(=O)[C@@H](Cc1ccccc1)NC(=O)CNC(=O)[C@H](CC1CCCCC1)NC(=O)CCCCCN)C(=O)O (mixture of isomers) [Example 58, N-(6-Aminohexanoyl)-{(2S)-2-Amino-3-cyclohexylpropanoyl}-Glycyl-DPhenylalanyl-{(R/S)-2-Amino-5-phenylpentanoyl}-Arginyl-OH]	6.5 µM
C[C@H](NC(=O)CNC(=O)[C@@H](N)CC1CCCCC1)C(=O)NC(CCCc1ccccc1)C(=O)N[C@@H](CCCNC(=N)N)C(=O)O (mixture of isomers) [Example 59, H-{(2S)-2-Amino-3-cyclohexylpropanoyl}-Glycyl-Alanyl-{(±)-2-Amino-5-phenylpentanoyl}-Arginyl-OH]	67 µM
CC(C)C[C@H](NC(=O)[C@@H](CCCCN)NC(=O)[C@@H](N)CC1CCCCC1)C(=O)NC(CCCc1ccccc1)C(=O)N[C@@H](CCCNC(=N)N)C(=O)O (mixture of isomers) [Example 98, H-{(2S)-2-Amino-3-cyclohexylpropanoyl}-DLysyl-Leucyl-{(R/S)-2-Amino-5-phenylpentanoyl}-Arginyl-OH]	44.7 µM
CC(C)C[C@H](NC(=O)CNC(=O)[C@H](CC1CCCCC1)NC(=O)CN(C)C(=O)CCCN)C(=O)NC(CCCc1ccccc1)C(=O)N[C@@H](CCCNC(=N)N)C(=O)O (mixture of isomers) [Example 113, N-(gamma-Aminobutyryl)-Sarcrosinyl-{(2S)-2-Amino-3-cyclohexyl-propanoyl}-Glycyl-Leucyl-{(R/S)-2-Amino-5-phenylpentanoyl}-Arginyl-OH]	0.87 µM
CC(C)C[C@H](NC(=O)[C@H](C)NC(=O)[C@H](CC1CCCCC1)NC(=O)[C@@H]1CCCN1C(=O)[C@H](C)NC(=O)[C@@H](N)Cc1ccccc1)C(=O)NC(CCCc1ccccc1)C(=O)N[C@@H](CCCNC(=N)N)C(=O)O (mixture of isomers) [Example 143, H-Phenylalanyl-Alanyl-Prolyl-{(2S)-2-Amino-3-cyclohexylpropanoyl}-Alanyl-Leucyl-{(±)-2-Amino-5-phenylpentanoyl}-Arginyl-OH]	0.054 µM
CC(C)C[C@H](NC(=O)CNC(=O)[C@H](CC1CCCCC1)NC(=O)NCc1ccc(CN)cc1)C(=O)NC(CCCc1ccccc1)C(=O)N[C@@H](CCCNC(=N)N)C(=O)O (mixture of isomers) [Example 145, N-[N-(4-Aminomethylbenzyl)aminocarbonyl]-{(2S)-2-Amino-3-cyclohexylpropanoyl}-Glycyl-Leucyl-{(R/S)-2-Amino-5-phenylpentanoyl}-Arginyl-OH]	7 µM
CC(C)C[C@H](NC(=O)[C@H](C)NC(=O)[C@H](CC1CCCCC1)NC(=O)CNC(=O)CCCCCN)C(=O)NC(CCCc1ccccc1)C(=O)N[C@@H](CCCNC(=N)N)C(=O)O (single isomer, unassigned) [Example 32]	10 µM
CC(C)C[C@H](NC(=O)[C@H](C)NC(=O)[C@H](CC1CCCCC1)NC(=O)CNC(=O)CCCCCN)C(=O)NC(CCCc1ccccc1)C(=O)N[C@@H](CCCNC(=N)N)C(=O)O (single isomer, unassigned) [Example 33]	0.68 µM
CC(C)C[C@H](NC(=O)CNC(=O)[C@@H](CC1CCCCC1)NC(=O)CCCCCN)C(=O)NC(CCCc1ccccc1)C(=O)N[C@@H](CCCNC(=N)N)C(=O)O (single isomer, unassigned) [Example 34]	21.6 µM
CC(C)C[C@H](NC(=O)CNC(=O)[C@@H](CC1CCCCC1)NC(=O)CCCCCN)C(=O)NC(CCCc1ccccc1)C(=O)N[C@@H](CCCNC(=N)N)C(=O)O (single isomer, unassigned) [Example 35]	1.27 µM
CC(C)C[C@H](NC(=O)CNC(=O)[C@H](CC1CCCCC1)N(C)C(=O)CCCCN)C(=O)NC(CCCc1ccccc1)C(=O)N[C@@H](CCCNC(=N)N)C(=O)O (single isomer, unassigned) [Example 36]	9.7 µM
CC(C)C[C@H](NC(=O)CNC(=O)[C@H](CC1CCCCC1)N(C)C(=O)CCCCN)C(=O)NC(CCCc1ccccc1)C(=O)N[C@@H](CCCNC(=N)N)C(=O)O (single isomer, unassigned) [Example 37]	3.2 µM
CSCC[C@H](NC(=O)[C@H](CC(=O)O)NC(=O)[C@@H](N)CCCCN)C(=O)N[C@@H](CCC(N)=O)C(=O)N[C@@H](CC(C)C)C(=O)NC(CCCc1ccccc1)C(=O)N[C@@H](CCCNC(=N)N)C(=O)O (single isomer, unassigned) [Example 39, H-Lysyl-Aspartyl-Methionyl-Glutaminyl-Leucyl-{(R/S)-2-Amino-5-phenylpentanoyl}-Arginyl-OH]	71 µM
CSCC[C@H](NC(=O)[C@H](CC(=O)O)NC(=O)[C@@H](N)CCCCN)C(=O)N[C@@H](CCC(N)=O)C(=O)N[C@@H](CC(C)C)C(=O)NC(CCCc1ccccc1)C(=O)N[C@@H](CCCNC(=N)N)C(=O)O (single isomer, unassigned) [Example 40, H-Lysyl-Aspartyl-Methionyl-Glutaminyl-Leucyl-{(R/S)-2-Amino-5-phenylpentanoyl}-Arginyl-OH]	1.1 µM
CC(C)C[C@H](NC(=O)CNC(=O)[C@H](CC1CCCCC1)NC(=O)[C@@H](N)CCCCN)C(=O)NC(CCCc1ccccc1)C(=O)N[C@@H](CCCNC(=N)N)C(=O)O (single isomer, unassigned) [Example 41, H-Lysyl-{(2S)-2-Amino-3-cyclohexylpropanoyl}-Glycyl-Leucyl-{(R/S)-2-Amino-5-phenylpentanoyl}-Arginyl-OH]	25.4 µM
CC(C)C[C@H](NC(=O)CNC(=O)[C@H](CC1CCCCC1)NC(=O)[C@@H](N)CCCCN)C(=O)NC(CCCc1ccccc1)C(=O)N[C@@H](CCCNC(=N)N)C(=O)O (single isomer, unassigned) [Example 42, H-Lysyl-{(2S)-2-Amino-3-cyclohexylpropanoyl}-Glycyl-Leucyl-{(R/S)-2-Amino-5-phenylpentanoyl}-Arginyl-OH]	0.45 µM
CC(=O)N[C@@H](CC1CCCCC1)C(=O)NCC(=O)N[C@@H](CC(C)C)C(=O)NC(CCCc1ccccc1)C(=O)N[C@@H](CCCNC(=N)N)C(=O)O (single isomer, unassigned) [Example 45]	7.58 µM
